Experiment [1] has as its target T1, Gal-1 (Homo sapiens, UniProt P09382).
T1 construct: made in house
Further details: method as in PMID 34225180. As to conditions: cited from earlier work.

For experiment [2], the target named is T2, Gal-8C (Homo sapiens, UniProt O00214).
T2 construct: than to the C-terminal domain (Gal-8C)
T2 sequence (O00214 187-317 limits assumed): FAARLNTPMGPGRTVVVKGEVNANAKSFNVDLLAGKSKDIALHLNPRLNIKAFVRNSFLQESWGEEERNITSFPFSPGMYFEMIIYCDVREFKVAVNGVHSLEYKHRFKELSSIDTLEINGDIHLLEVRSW
Further details: method as in PMID 34225180. The following applies: cited from earlier work.

In experiment [3] the target is T3, Gal-8N (galectin-8 N-terminal domain) (Homo sapiens, UniProt O00214).
T3 construct: made in house
T3 sequence (O00214 19-152 limits assumed): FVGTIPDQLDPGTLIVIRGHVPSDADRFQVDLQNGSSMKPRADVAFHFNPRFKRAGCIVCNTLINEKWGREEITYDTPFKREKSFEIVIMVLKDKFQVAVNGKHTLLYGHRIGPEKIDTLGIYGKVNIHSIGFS
The following applies: cited from earlier work.

Experiment [4] addresses T4, Gal-8N (Homo sapiens, UniProt O00214).
T4 construct: consisting of residues 4-158 was produced by Lund Protein Production Platform; made in house; host or cells: E. coli TUNER(DE3)
T4 sequence (O00214 4-158): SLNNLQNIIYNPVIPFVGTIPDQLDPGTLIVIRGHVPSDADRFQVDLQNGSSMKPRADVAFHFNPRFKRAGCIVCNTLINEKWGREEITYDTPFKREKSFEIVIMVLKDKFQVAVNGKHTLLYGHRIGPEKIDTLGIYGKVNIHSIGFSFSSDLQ
Description: isothermal titration calorimetry (ITC), binding to Gal-8N. As for the experimental part: Isothermal titration calorimetry (ITC) experiments were conducted using a Microcal PEAQ-ITC isothermal titration calorimeter (Malvern Instruments, Malvern Panalytical Ltd) at 25 °C. Lyophilized Gal-8N was first dissolved in PBS buffer (with a 4.3 mM β-mercaptoethanol) with a pH = 7.4 and Gal-8N was dialyzed with a 0.5–3 mL Slide-A-Lyzer™ 7k MWCO Dialysis Cassette in the same buffer. To remove residual lactose, Gal-8N was additionally purified using Superdex 75 Increase column equilibrated in PBS with 5% DMSO. Fractions containing Gal-8N were collected and concentrated with Amicon® Ultra-0.5 Centrifugal Filter Device with a 10k MWCO to a final concentration of about 40 µM. A280 was measured using the NanoDrop^TM One Microvolume UV-VIS spectrophotometer and the concentration of Gal-8N was calculated (ε = 11460 L mol^−1 cm^−1 was used). 16 mM stock solutions of 1, 11, and 29 were prepared in pure DMSO. The 16 mM stock solutions were diluted to 800 μM with pure PBS and then to the final concentration of 560 μM (the final content of DMSO was 5%). Titrations were performed with 19 injections of Gal-8N inhibitors 1, 11 (560 μM) and 29 (800 μM) with a following settings: reference power = 10.0 µcal s^−1, feedback = high, stir speed = 750, Initial delay = 100 s, first spacing = 200 s, the other spacings = 150 s.
Raw thermograms were exported and integrated with the NITPIC (version 2.0.7)[43] and then analyzed with SEDPHAT (version 15.2)[44],[45]. Parameter and error analysis were performed using the Monte-Carlo approach for nonlinear regression with 1000 iterations as implemented in SEDPHAT.
For orientation: ITC needs no label: the signal is the heat of the interaction.

For experiment [5], the target named is T5, Gal-3 (Homo sapiens, UniProt P17931).
T5 construct: made in house
T5 sequence (P17931 whole entry): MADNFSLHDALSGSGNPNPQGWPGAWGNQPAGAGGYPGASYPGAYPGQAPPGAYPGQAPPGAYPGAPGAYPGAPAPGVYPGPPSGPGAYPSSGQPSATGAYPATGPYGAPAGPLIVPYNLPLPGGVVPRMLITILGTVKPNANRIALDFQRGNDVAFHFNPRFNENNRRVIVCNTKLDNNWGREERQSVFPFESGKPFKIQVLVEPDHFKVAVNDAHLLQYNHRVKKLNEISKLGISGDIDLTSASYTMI
The following applies: cited from earlier work; for Gal-3 selectivity ratio Kd (Gal-3)/Kd (Gal-8N): selectivity for Gal-8N over Gal-3 (fold).

Experiment [6] concerns the target T3, Gal-8N (galectin-8 N-terminal domain). Description: competitive fluorescence polarisation assay, Gal-8N. The class given is binding. The following applies: competitive FP, mean ± SEM of n = 4 to 8, 20 °C; read-out: Kd Gal-8N. As for the experimental part:
(§1) Human galectins-1, -3, and -8N were expressed and purified as described previously[8],[23],[24]. Competitive fluorescence polarization assays were performed with a PHERAstar FS plate reader with software PHERAstar Mars version 2.10 R3 (BMG, Offenburg, Germany) and Tecan Spark multimode microplate reader (Tecan Trading AG, Switzerland), where a fluorescence anisotropy of fluorescent-tagged probes was measured by excitation at 485 nm and emission at 520 nm. Experiments were performed at 20 °C with Gal-1 at 0.5 µM, Gal-3 at 0.2 µM, and Gal-8N at 0.4 µM. Fluorescent probes used for experiments were 3,3′-dideoxy-3-[4-(fluorescein-5-yl-carbonylaminomethyl)-1H-1,2,3-triazol-1-yl]-3′-(3,5-di-methoxybenzamido)-1,1′-sulfanediyl-di-β-D-galactopyranoside at 0.02 µM for Gal-1 and -3 and 2-(fluorescein-5-yl-carbonylamino)ethyl β-D-galactopyranosyl(1-4)-2-acetamido-2-deoxy-β-D-glucopyranosyl(1–3)-β-D-galactopyranosyl(1–4)-β-D-glucopyranoside at 0.1 µM for Gal-8N in each well. Compounds were first dissolved in pure DMSO at 20 mM concentration and later diluted in 5% DMSO in PBS solution to 5-7 different concentrations. Each concentration was tested in duplicate. The highest inhibitor concentrations tested were 1.5 mM. The average values of Kd and SEM (standard error mean) were calculated from 4 to 8 duplicate measurements, showing 10–90% inhibition.

Experiment [7] addresses T2, Gal-8C. The experiment is described as follows: competitive fluorescence polarisation assay, Gal-8C. In kind it is binding.
Experiment [8] concerns the target T5, Gal-3. Description: competitive fluorescence polarisation assay, Gal-3. The class given is binding. As for the experimental part: as §1
In experiment [9] the target is T4, Gal-8N. The experiment is described as follows: ligand efficiency (LE) and ligand-lipophilicity efficiency (LLE) calculations.
The target of experiment [10] is T1, Gal-1. Description: competitive fluorescence polarisation assay, Gal-1. The class given is binding. On the procedure: as §1
For orientation: Fluorescence polarisation rises when a labelled molecule tumbles more slowly, as on binding a larger partner.

[11] abbreviates: 25 °C, PBS buffer, 1:1 binding model, n = 2.

“And” between values parts separate entries of the source, which are not always exact repeats. Equal entries are not always repeated. Where two headings read alike, the source gives them in different places.

T1 sequence (P09382 whole entry): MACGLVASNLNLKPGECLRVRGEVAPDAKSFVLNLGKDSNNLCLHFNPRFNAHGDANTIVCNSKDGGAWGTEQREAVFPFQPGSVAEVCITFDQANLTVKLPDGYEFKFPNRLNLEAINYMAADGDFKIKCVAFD

`Cn1c(CO[C@@H]2[C@@H](O)[C@@H](Sc3ccc(Cl)c(Cl)c3)O[C@H](CO)[C@@H]2O)nc2ccc(C(=O)O)cc21` [Compound 1, reference compound]: the “Gal-1 selectivity ratio Kd (Gal-1)/Kd (Gal-8N)” value at Gal-1 [1] was 72. Also, the “Gal-8C selectivity ratio Kd (Gal-8C)/Kd (Gal-8N)” value at Gal-8C [2] is given as 422. In experiment [3], the “fold more potent than D-galactose (Gal-8N)” value is reported as ~ 5000 fold. For the same molecule, on Gal-8N [4] (setting [11]), the “-TΔS” value was 3.35 kcal/mol and 3.35 ± 3.11 kcal/mol; the Kd turned out to be 5 µM; the ΔG was -7.22 kcal/mol and -7.22 ± 0.14 kcal/mol; the ΔH was -10.5 kcal/mol and -10.5 ± 2.87 kcal/mol. Also, at Gal-8N [4] (TRIS buffer), the “-TΔS” value was 4.54 kcal/mol, the Kd stood at 4.5 µM, the ΔG was -7.34 kcal/mol and the ΔH is -12 kcal/mol. Further, the “Gal-3 selectivity ratio Kd (Gal-3)/Kd (Gal-8N)” value (from here on “Gal-3 selectivity ratio Kd”) at Gal-3 [5] is recorded as 2.8.
Consider `O=C(O)[C@H](CC1CCCCC1)O[C@@H]1[C@@H](O)[C@@H](Sc2ccc(Cl)c(Cl)c2)O[C@H](CO)[C@@H]1O` [Compound 2], for which the Kd in experiment [3] is 12 µM; on Gal-3 [5] (Fig. 1, earlier inhibitors, read-out: Kd: galectin-3), 82 µM. For the same molecule, the “selectivity over Gal-3” value on Gal-3 [5] (Gal-8N over Gal-3) is on record as 6.8 fold.
Consider `Cn1c(CO[C@@H]2C=CO[C@H](CO)[C@@H]2O)nc2ccc(C(=O)O)cc21` [Compound 3], for which the “Gal-3 selectivity ratio Kd” value at Gal-3 [5] is listed as 14.
With `Cn1c(CO[C@H]2[C@@H](O)[C@@H](CO)O[C@H](Sc3ccc(Cl)c(Cl)c3)[C@@H]2OCC(=O)O)nc2ccc(C(=O)O)cc21` [Compound 29], the Kd in experiment [6] amounted to 0.5 ± 0.03 µM; at Gal-8C [7] (competitive FP, mean ± SEM of n = 4 to 8) it was 449 ± 39 µM; at Gal-8N [4] (setting [11]) it was 0.6 µM; at Gal-3 [8] (competitive FP, mean ± SEM of n = 4 to 8, 20 °C, read-out: Kd Gal-3) it was 3.3 ± 0.2 µM; at Gal-1 [10] (competitive FP, mean ± SEM of n = 4 to 8, 20 °C), 49 ± 3.6 µM. Also, the “Gal-8C selectivity ratio Kd (Gal-8C)/Kd (Gal-8N)” value on Gal-8C [7] (ratio of FP Kd values) was determined as 898. In addition, the “-TΔS” value on Gal-8N [4] (setting [11]) was 5.26 ± 0.72 kcal/mol and 5.26 kcal/mol. Further, at Gal-8N [4] (setting [11]), the ΔG is -8.44 ± 0.096 kcal/mol and -8.44 kcal/mol. In addition, the ΔH on Gal-8N [4] (setting [11]) was -13.6 ± 0.72 kcal/mol and -13.6 kcal/mol. On Gal-8N [4] (difference vs compound 1), the “ΔΔH compared to 1” value is “–13 kJ mol^−1”. The “Gal-3 selectivity ratio Kd” value at Gal-3 [8] (ratio of FP Kd values) came out at 6.6. Moreover, the LLE on Gal-8N [9] (from Gal-8N Kd and clogP) is on record as 2.84. Besides, the LE on Gal-8N [9] (from Gal-8N Kd and number of non-hydrogen atoms) is recorded as 0.227 (kcal/mol)/heavy atom. Also, the “Gal-1 selectivity ratio Kd (Gal-1)/Kd (Gal-8N)” value at Gal-1 [10] (ratio of FP Kd values) came out at 98.
For `O=C[C@H](O)[C@@H](O)[C@@H](O)[C@H](O)CO` [D-galactose], on Gal-3 [5] (read-out: affinity for Gal-3), the Kd is about 5000 µM.

The values above are taken from article PMC11850616, “Nanomolar inhibitor of the galectin-8 N-terminal domain binds via a non-canonical cation-π interaction” (Communications Chemistry, 2025).
